Measurements: ChEMBL document CHEMBL1149126, “3-phenyl-6-(2-pyridyl)methyloxy-1,2,4-triazolo[3,4-a]phthalazines and analogues: high-affinity gamma-aminobutyric acid-A benzodiazepine receptor ligands with alpha 2, alpha 3, and alpha 5-subtype binding selectivity over alpha 1” (J Med Chem, 2004)
pKi: −log10 of the molar value.

Key:
[1] = molecular target: T1, GABA-A receptor; alpha-3/beta-3/gamma-2 (Homo sapiens, UniProt P18507+P28472+P34903); assay: Binding affinity for human GABA-A receptor alpha-3-beta-3-gamma-2 subunits in L(tk-) cells; assay type: cell-based
T1 sequence (P18507 whole entry): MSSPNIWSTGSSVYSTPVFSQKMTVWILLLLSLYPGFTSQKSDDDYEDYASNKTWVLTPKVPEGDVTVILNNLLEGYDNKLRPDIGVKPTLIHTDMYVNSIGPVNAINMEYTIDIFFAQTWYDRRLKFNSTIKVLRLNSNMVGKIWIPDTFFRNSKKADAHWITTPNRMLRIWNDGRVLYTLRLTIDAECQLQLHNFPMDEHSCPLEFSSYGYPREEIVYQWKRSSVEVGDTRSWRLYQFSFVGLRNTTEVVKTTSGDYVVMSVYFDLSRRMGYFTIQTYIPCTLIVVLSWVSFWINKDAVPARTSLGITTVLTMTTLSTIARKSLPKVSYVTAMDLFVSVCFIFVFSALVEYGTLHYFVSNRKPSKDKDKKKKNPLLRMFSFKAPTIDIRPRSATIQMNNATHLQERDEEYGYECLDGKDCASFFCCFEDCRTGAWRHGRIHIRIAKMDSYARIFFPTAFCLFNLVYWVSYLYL
T1 sequence (P28472 whole entry): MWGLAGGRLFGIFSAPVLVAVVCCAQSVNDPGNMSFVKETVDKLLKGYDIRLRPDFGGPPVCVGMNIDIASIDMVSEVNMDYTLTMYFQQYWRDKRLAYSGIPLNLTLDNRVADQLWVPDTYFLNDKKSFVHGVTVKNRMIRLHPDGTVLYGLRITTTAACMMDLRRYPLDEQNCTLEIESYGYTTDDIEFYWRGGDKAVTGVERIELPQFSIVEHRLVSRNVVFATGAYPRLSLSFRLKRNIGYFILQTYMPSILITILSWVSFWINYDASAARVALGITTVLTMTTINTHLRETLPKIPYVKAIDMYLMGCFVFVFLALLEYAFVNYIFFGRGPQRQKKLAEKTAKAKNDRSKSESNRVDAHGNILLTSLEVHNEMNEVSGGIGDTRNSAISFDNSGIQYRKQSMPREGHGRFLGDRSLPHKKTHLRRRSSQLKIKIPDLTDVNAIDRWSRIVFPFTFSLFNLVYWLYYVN
T1 sequence (P34903 whole entry): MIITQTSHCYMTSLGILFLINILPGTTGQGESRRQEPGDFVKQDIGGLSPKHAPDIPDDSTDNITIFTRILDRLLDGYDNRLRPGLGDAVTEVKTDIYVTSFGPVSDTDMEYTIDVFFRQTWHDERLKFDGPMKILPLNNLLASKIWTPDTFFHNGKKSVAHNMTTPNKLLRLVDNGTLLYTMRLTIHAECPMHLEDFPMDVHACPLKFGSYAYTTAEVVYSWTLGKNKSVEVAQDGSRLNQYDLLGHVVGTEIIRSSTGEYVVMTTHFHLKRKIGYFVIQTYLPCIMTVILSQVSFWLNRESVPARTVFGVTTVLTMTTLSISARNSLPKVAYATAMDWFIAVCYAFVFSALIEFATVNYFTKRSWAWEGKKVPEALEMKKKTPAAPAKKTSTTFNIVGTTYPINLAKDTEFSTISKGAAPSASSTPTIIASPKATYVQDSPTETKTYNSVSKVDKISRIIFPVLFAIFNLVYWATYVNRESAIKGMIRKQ

[2] = molecular target: T2, GABA-A receptor; alpha-5/beta-3/gamma-2 (Homo sapiens, UniProt P18507+P28472+P31644); assay: Binding affinity for human GABA-A receptor alpha-5-beta-3-gamma-2 subunits in L(tk-) cells; assay type: cell-based
T2 sequence (P18507 whole entry): T1 sequence (P18507 whole entry)
T2 sequence (P28472 whole entry): T1 sequence (P28472 whole entry)
T2 sequence (P31644 whole entry): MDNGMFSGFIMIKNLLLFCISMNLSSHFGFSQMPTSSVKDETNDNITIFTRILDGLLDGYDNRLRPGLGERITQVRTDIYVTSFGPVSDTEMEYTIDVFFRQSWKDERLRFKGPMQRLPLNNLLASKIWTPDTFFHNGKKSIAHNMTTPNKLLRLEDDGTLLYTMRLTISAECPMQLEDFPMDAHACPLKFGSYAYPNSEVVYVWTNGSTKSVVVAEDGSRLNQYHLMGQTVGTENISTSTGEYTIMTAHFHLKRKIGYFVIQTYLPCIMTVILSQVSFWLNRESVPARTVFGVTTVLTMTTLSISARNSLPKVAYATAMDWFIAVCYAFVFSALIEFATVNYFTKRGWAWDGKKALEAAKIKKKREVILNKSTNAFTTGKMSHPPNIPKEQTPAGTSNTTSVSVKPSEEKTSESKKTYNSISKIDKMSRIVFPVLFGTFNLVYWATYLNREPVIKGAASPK

[3] = molecular target: T3, GABA-A receptor; alpha-2/beta-3/gamma-2 (Homo sapiens, UniProt P18507+P28472+P47869); assay: Binding affinity for human GABA-A receptor alpha-2-beta-3-gamma-2 subunits in L(tk-) cells; assay type: cell-based
T3 sequence (P18507 whole entry): T1 sequence (P18507 whole entry)
T3 sequence (P28472 whole entry): T1 sequence (P28472 whole entry)
T3 sequence (P47869 whole entry): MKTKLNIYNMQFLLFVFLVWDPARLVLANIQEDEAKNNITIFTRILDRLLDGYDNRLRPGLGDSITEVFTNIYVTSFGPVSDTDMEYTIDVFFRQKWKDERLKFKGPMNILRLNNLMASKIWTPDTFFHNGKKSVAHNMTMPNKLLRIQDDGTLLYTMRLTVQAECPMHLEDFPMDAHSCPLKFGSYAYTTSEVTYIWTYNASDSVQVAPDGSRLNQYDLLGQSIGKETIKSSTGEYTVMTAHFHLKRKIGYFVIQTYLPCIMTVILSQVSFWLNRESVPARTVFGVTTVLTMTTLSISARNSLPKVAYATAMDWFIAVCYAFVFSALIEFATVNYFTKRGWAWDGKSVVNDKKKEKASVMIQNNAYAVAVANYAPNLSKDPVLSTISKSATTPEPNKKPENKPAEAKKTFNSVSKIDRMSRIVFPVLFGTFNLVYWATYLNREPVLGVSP

[4] = molecular target: T4, GABA-A receptor; alpha-1/beta-3/gamma-2 (Homo sapiens, UniProt P14867+P18507+P28472); assay: Binding affinity for human GABA-A receptor alpha-1-beta-3-gamma-2 subunits in L(tk-) cells
T4 sequence (P14867 whole entry): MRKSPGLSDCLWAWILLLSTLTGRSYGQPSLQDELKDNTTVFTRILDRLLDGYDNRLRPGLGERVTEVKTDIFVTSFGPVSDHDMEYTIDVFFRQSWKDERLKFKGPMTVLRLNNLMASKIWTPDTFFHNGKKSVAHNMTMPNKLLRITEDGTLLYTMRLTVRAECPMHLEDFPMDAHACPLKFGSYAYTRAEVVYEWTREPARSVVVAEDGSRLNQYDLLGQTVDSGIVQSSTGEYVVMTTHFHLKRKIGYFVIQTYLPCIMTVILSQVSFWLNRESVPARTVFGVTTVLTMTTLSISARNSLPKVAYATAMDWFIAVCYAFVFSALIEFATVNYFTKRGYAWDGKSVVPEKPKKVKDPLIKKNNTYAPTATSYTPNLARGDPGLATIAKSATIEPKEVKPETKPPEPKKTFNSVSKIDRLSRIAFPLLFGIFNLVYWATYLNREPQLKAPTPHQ
T4 sequence (P18507 whole entry): T1 sequence (P18507 whole entry)
T4 sequence (P28472 whole entry): T1 sequence (P28472 whole entry)

`c1ccc(-c2nnc3c4ccccc4c(OCc4ccncn4)nn23)cc1` gave a pKi [1] of 8.89, a pKi [2] of 9.30 and a pKi [3] of 8.54. It also gave a pKi [4] of 8.64.

In the case of `c1ccc(-c2nnc3c4ccccc4c(OCc4ccco4)nn23)cc1`, the pKi [1] was 6.74, the pKi [2] was 7.13 and the pKi [3] was 6.57. The pKi [4] was 6.60.

In the case of `c1ccc(-c2nnc3c4ccccc4c(OCc4cccnc4)nn23)cc1`, the pKi [1] was 7.72, the pKi [2] was 7.51 and the pKi [3] was 7.80. The pKi [4] was 7.72.

`CN(C)Cc1nnc2c3ccccc3c(OCc3ccccn3)nn12` showed a pKi [1] of 6.08, a pKi [2] of 6.80 and a pKi [3] of 6.21. The pKi [4] was 6.85.

Work on `c1ccc(-c2nnc3c4ccccc4c(OCc4ccncc4)nn23)cc1` yielded a pKi [1] of 8.11, a pKi [2] of 8.21 and a pKi [3] of 7.96. The pKi [4] was 7.62.

In the case of `c1ccc(-c2nnc3c4ccccc4c(OCc4cccs4)nn23)cc1`, the pKi [1] was 6.52, the pKi [2] was 6.77 and the pKi [3] was 6.25. For the same molecule, the pKi [4] was 6.62.

For `Clc1ccccc1COc1nn2c(-c3ccccc3)nnc2c2ccccc12`, the pKi [1] was 6.59, the pKi [2] was 6.25 and the pKi [3] was 6.24. For the same molecule, the pKi [4] was under 6.00.

`O=C1c2ccccc2C(=O)N1CCn1c(=O)c2ccccc2c(=O)n1Cc1ccccc1` was tested, and the pKi [1] was 5.85, the pKi [2] was 5.32 and the pKi [3] was 5.74.

For `c1ccc(COc2nn3c(-c4ccccc4)nnc3c3ccccc23)cc1`, the pKi [1] was 7.39, the pKi [2] was 7.42 and the pKi [3] was 7.80. It also gave a pKi [4] of 6.55.

`Clc1cccc(COc2nn3c(-c4ccccc4)nnc3c3ccccc23)c1` gave a pKi [1] of under 6.00, a pKi [2] of under 6.00 and a pKi [3] of under 6.00. The pKi [4] was under 6.00.

`COc1ccc(COc2nn3c(-c4ccccc4)nnc3c3ccccc23)cc1` gave a pKi [1] of 6.72, a pKi [2] of 6.80 and a pKi [3] of 6.66. The pKi [4] was 6.70.

With `CCCc1nnc2c3ccccc3c(OCc3ccccn3)nn12` the pKi [1] was 7.28, the pKi [2] was 7.72 and the pKi [3] was 6.92. It also gave a pKi [4] of 6.80.

For `Fc1ccc(-c2nnc3c4ccccc4c(OCc4ccccn4)nn23)cc1`, the pKi [1] was 8.62, the pKi [2] was 8.77 and the pKi [3] was 8.43. For the same molecule, the pKi [4] was 8.41.

`CCOC(=O)c1ncn2c1[C@@H]1CCCN1C(=O)c1cc(OC)ccc1-2` showed a pKi [1] of 7.96, a pKi [2] of 9.40 and a pKi [3] of 7.66. It also gave a pKi [4] of 7.36.

For `Cc1ccc(-c2nc3ccc(C)cn3c2CC(=O)N(C)C)cc1` [ZOLPIDEM], the pKi [2] was under 4.82.

For `COc1ccc(-c2nnc3c4ccccc4c(OCc4ccccc4)nn23)cc1`, the pKi [1] was 6.77, the pKi [2] was 7.14 and the pKi [3] was 6.07.

`COCCN(CCOC)c1nn2c(-c3ccc(OC)cc3)nnc2c2ccccc12` showed a pKi [1] of 7.39, a pKi [2] of 7.10 and a pKi [3] of 7.39.

For `c1ccc(-c2nnc3c4ccccc4c(OCc4cccnn4)nn23)cc1`, the pKi [1] was 9.43, the pKi [2] was 9.82 and the pKi [4] was 9.09.
